The text below walks through data of patent US20160220720A1, “COMPOSITIONS COMPRISING POLYAMINE POLYMER COMPATIBLE PERFUME MATERIALS” (priority 2013, published 2016).

Where “and” joins values, the source holds several entries; their conditions need not be identical. Equal values may be shown once.

The first data set can be described thus: GC-MS head space ratio of perfume raw materials with versus without polyamine polymer (R). The note with it: aqueous fabric refresher formulation pH 6.8, 0.05% Lupamin 1595; head space after 1 hr room temperature and 20 minutes at 40° C.; Control without polyamine polymer = 1.000. Type of data set: physicochemical. On the procedure:
R=head space of aqueous composition containing polyamine/head space of aqueous composition nil polyamine polymer
Polyamine polymer perfume interactions were studied in aqueous fabric refresher formulations. Aqueous formulations containing a perfume mixture and a polyamine polymer was prepared according to Table 2 and studied against a control fabric refresher formulation without a polyamine polymer. Studies were conducted using 500 ppm (0.05%) polyamine polymer and perfume mixtures at 2 levels (500 ppm (0.05%) and 10,000 ppm […]).
GC-MS was used to study polymer perfume aldehyde interactions using the formulations prepared in Example 1. For the GC-MS analysis, 2 ml of each sample was transferred into 20 ml headspace vial, equilibrated at room temperature for 1 hr, and incubated at 40° C. for 20 minutes. Then, 1 ml of head space was injected into GC-MS using 1 to 10 split, and perfume raw material intensities were measured. Perfume raw material peak area ratios were then calculated using the control sample without a polyamine polymer.
PRMs that react with polyamine polymer have a headspace concentration less than 1.00 with respect to the normalized Control.
Consider `CC(C)=CCC/C(C)=C\C=O` [Neral], for which the “GC-MS head space peak area ratio normalized to Control” value was found to be 0.261.

As for `O=Cc1ccccc1` [Benzaldehyde], the “GC-MS head space peak area ratio normalized to Control” value came to 1.030.

For the compound `CCC/C=C/C=O` [Trans-2-hexenal], the “GC-MS head space peak area ratio normalized to Control” value was determined as 0.226.

As to `CCCCCCCCCC(C)C=O` (stereo not drawn) [Methyl Nonyl Acetaldehyde], the “GC-MS head space peak area ratio normalized to Control” value amounted to 0.772.

Turning to `CCCCCCCCCCC=CC=O` [Tridecenal], the “GC-MS head space peak area ratio normalized to Control” value was 0.470.

Consider `CC(C)=CCCC(C)CCCC(C)C=O` (stereo not drawn) [Adoxal], for which the “GC-MS head space peak area ratio normalized to Control” value turned out to be 0.751.

As for `C=C(C)C1CC=C(C)C(=O)C1` (stereo not drawn) [Carvone], the “GC-MS head space peak area ratio normalized to Control” value came out at 1.103.

With `O=CCCC=C1CC2CC1C1CCCC21` (stereo not drawn) [Dupical], the “GC-MS head space peak area ratio normalized to Control” value is reported as 0.932.

As for `CC(=O)c1cccs1` [2-acetyl thiophene], the “GC-MS head space peak area ratio normalized to Control” value was found to be 0.794.

In the case of `CCCC(C)C=O` (stereo not drawn) [2-methyl petanal], the “GC-MS head space peak area ratio normalized to Control” value is given as 0.864.

`CC(C)c1ccc(C=O)cc1` [Cuminaldehyde]: the “GC-MS head space peak area ratio normalized to Control” value came out at 0.977.

On to `CC(C)CCCC(C)CC=O` (stereo not drawn) [Tetrahydrogeranial], for which the “GC-MS head space peak area ratio normalized to Control” value turned out to be 0.415.

Take `CCCCCCC(C=O)=Cc1ccccc1` [Hexylcinnamicaldehyde]: the “GC-MS head space peak area ratio normalized to Control” value was determined as 1.480.

For `COc1ccc(C=O)cc1` [p-Anisaldehyde], the “GC-MS head space peak area ratio normalized to Control” value was 1.521.

On to `CC(=O)/C=C/C1=C(C)CCCC1(C)C` [Beta Ionone], for which the “GC-MS head space peak area ratio normalized to Control” value was found to be 1.222.

With `CCCCCC=O` [Hexanal], the “GC-MS head space peak area ratio normalized to Control” value is given as 0.222.

In the case of `C/C=C/C(=O)C1C(C)C=CCC1(C)C` (stereo not drawn) [Delta-damascone], the “GC-MS head space peak area ratio normalized to Control” value worked out at 1.228.

On to `CC(C)=CCCC(C)CC=O` (stereo not drawn) [Citronellal], for which the “GC-MS head space peak area ratio normalized to Control” value stood at 2.597.

For `CC(=O)c1ccc(C(C)=O)cc1` [1,4-diacety lbenzene], the “GC-MS head space peak area ratio normalized to Control” value was 0.913.

As to `CCCCCCCCCCCC=O` [Lauric Aldehyde], the “GC-MS head space peak area ratio normalized to Control” value is 0.169.

As for `CCCCCCCCC=O` [Nonaldehyde], the “GC-MS head space peak area ratio normalized to Control” value was found to be 0.209.

Turning to `CCCCCCCCC(C)C=O` (stereo not drawn) [Methyl Octyl acetaldehyde], the “GC-MS head space peak area ratio normalized to Control” value is 0.836.

The data set is the same for the next values; noted with them: aqueous fabric refresher formulation pH 6.8, 0.05% Lupamin 1595; head space after 1 hr room temperature and 20 minutes at 40° C.; Control without polyamine polymer = 1.000; listed as Kaovone.
Regarding `CC(=O)/C(C)=C(/C)C(C)C(C)(C)C` (stereo not drawn) [Koavone], the “GC-MS head space peak area ratio normalized to Control” value was 1.185 and 1.159 and 1.171.

The same data set, now with this note: head space with polyamine polymer / head space nil polyamine polymer.
For `O=CC1CCC2C3CCC(C3)C12` (stereo not drawn) [Melozone], the “Obs. Lupamin Ratio” value turned out to be 0.28.

For the compound `CC1(C)CCc2ccc(CCC=O)cc21` [Hivernal], the “Obs. Lupamin Ratio” value is recorded as 0.17.

Take `CC(C)=CCC/C(C)=C/C=O` [Citral]: the “Obs. Lupamin Ratio” value is on record as 0.23.

On to `CC(C)=CCCC(C)CCCC(C)C=O` (stereo not drawn) [Adoxal], for which the “Obs. Lupamin Ratio” value is on record as 0.79.

Consider `CC(=O)/C(C)=C(/C)C(C)C(C)(C)C` (stereo not drawn) [Koavone], for which the “Obs. Lupamin Ratio” value amounted to 1.17.

For `CC(C)CCCC(C)CC=O` (stereo not drawn) [Tetrahydrogeranial], the “Obs. Lupamin Ratio” value was found to be 0.42.

On to `COc1ccc(C=O)cc1` [p-Anisaldehyde], for which the “Obs. Lupamin Ratio” value was found to be 1.52.

Regarding `O=Cc1ccc2c(c1)OCO2` [Heliotropin], the “Obs. Lupamin Ratio” value amounted to 1.65.

`CCCCCCCCC=O` [Nonaldehyde]: the “Obs. Lupamin Ratio” value was found to be 0.21.

Assay in a further data set: not given
The settings on record: ambient temperature; cited from earlier work.
Consider “hydroxypropyl modified beta cyclodextrin”, for which the “water solubility (benchmark)” value is at least 60 g/100 ml.
